Assay results reported in US20060063759A1, “Tricyclic steroid hormone nuclear receptor modulators” (priority 2002, published 2006).
pKi: −log10 of the molar value.

Assays:
human MR = biological target: T1, human MR (Homo sapiens, UniProt P08235); assay: Mineralocorticoid Receptor Binding Assay ([3H]-aldosterone); conditions: [3H]-aldosterone binding, human MR expressed in Sf9 cells; read-out: MR Ki
T1 construct: The full length human MR gene is cloned from a human kidney or human brain cDNA library; His tag from the pAcHLT vector (own knowledge); made in house; host or cells: Sf9 insect cells (baculovirus, pAcHLT transfer vector)
T1 sequence (P08235 1-984): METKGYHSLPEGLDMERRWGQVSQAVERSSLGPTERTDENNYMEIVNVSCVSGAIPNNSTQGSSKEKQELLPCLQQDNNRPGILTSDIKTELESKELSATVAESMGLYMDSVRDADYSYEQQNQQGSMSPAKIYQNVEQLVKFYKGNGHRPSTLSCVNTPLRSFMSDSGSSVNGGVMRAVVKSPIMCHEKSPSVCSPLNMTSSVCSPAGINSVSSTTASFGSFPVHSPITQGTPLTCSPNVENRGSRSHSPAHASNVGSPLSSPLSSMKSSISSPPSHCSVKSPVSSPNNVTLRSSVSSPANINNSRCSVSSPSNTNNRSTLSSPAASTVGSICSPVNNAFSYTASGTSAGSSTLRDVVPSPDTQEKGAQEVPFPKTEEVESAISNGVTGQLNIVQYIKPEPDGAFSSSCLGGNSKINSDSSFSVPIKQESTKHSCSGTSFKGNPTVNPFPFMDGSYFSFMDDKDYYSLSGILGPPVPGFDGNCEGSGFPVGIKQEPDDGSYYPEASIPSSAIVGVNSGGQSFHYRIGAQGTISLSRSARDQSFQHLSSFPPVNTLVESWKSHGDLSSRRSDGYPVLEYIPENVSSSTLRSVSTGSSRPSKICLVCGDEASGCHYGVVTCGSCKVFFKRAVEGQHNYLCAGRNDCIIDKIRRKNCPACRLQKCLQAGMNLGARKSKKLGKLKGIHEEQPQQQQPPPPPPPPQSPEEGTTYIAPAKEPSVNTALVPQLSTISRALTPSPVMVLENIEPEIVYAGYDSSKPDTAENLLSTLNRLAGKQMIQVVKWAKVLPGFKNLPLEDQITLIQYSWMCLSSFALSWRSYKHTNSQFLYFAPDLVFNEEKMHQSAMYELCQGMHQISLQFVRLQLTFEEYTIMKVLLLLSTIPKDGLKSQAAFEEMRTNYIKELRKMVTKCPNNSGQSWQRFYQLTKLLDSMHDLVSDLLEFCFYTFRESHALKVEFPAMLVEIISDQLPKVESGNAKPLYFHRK
How it was run: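 Receptor source: freeze-thaw lysate of baculovirus-infected Sf9 cells carrying full-length human MR, 20-25 μg protein. Incubation ~16 h at 4 °C with shaking, pH 7.5 buffer containing 30 mM sodium molybdate and 10% glycerol.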

glucocorticoid receptor = biological target: T2, glucocorticoid receptor (Homo sapiens, UniProt P04150); assay: Glucocorticoid Receptor Binding Assay ([3H]-dexamethasone, A549 cell extract); conditions: [3H]-dexamethasone binding, read-out: GR Ki
T2 construct: containing 50-200 ug of A549 cell extract and 1.86 nM [^3H]-dexamethasone; host or cells: A549 human lung epithelial cells (sonicated cell extract)
T2 sequence (P04150 1-777): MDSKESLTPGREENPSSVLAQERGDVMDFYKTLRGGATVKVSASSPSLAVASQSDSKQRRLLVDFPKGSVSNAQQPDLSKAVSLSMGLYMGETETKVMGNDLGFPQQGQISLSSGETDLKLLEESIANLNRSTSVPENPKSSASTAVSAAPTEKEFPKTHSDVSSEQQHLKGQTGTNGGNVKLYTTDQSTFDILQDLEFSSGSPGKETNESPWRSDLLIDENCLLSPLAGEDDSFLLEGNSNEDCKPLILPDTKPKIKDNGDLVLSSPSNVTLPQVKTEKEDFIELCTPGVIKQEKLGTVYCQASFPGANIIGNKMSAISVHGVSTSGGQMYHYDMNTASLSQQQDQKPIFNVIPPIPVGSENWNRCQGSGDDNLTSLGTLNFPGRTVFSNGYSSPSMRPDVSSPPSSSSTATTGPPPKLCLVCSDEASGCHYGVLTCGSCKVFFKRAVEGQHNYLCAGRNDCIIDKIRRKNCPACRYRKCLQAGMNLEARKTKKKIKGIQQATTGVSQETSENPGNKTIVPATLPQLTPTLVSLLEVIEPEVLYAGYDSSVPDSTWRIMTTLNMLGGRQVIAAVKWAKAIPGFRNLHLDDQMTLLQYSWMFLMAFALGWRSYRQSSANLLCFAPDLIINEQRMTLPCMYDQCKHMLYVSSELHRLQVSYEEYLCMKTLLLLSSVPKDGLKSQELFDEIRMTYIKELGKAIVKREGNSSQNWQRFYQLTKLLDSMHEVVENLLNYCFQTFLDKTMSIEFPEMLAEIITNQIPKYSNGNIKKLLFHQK
How it was run: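 Displacement of [3H]-dexamethasone (1.86 nM) from glucocorticoid receptor in sonicated A549 lung epithelial cell extracts, 16 h at 4 °C, pH 7.2 molybdate-containing buffer. Bound radioactivity was scintillation-counted after charcoal/dextran stripping of free ligand.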

Row | Structure (SMILES) | pKi (human MR) | melting point [°C] | pKi (glucocorticoid receptor)
1 | O=S(=O)(Nc1cccc(C=C2c3ccccc3CCc3ccccc32)c1)c1ccccc1 [Example 93, N-[3-(10,11-Dihydrodibenzo[a,d]cyclohepten-5-ylidenemethyl)-phenyl]-benzenesulfonamide] | > 6.30 | 121.9 | > 6.30
2 | Oc1cccc(C=C2c3ccccc3CCc3ccccc32)c1F [Example 153, 3-(10,11-Dihydro-dibenzo[a,d]cyclohepten-5-ylidenemethyl)-2-fluoro-phenol] | > 6.30 | 143.2 | > 6.00
3 | CC(C)S(=O)(=O)Nc1cccc(C=C2c3ccccc3CCc3ccccc32)c1 [Example 92, Propane-2-sulfonic acid [3-(10,11-dihydro-dibenzo[a,d]cyclohepten-5-ylidenemethyl)-phenyl]-amide] | > 6.30 | 187.7 | > 6.30
4 | CC(=O)Nc1ccc(C=C2c3ccccc3CCc3ccccc32)cc1 [Example 116, N-[4-(10,11-Dihydro-dibenzo[a,d]cyclohepten-5-ylidenemethyl)-phenyl]-acetamide] | > 6.30 | 134.8 | > 6.30
5 | Cc1noc(C)c1S(=O)(=O)Nc1cccc(C=C2c3ccccc3CCc3ccccc32)c1 [Example 94, 3,5-Dimethyl-isoxazole-4-sulfonic acid [3-(10,11-dihydro-dibenzo[a,d]cyclohepten-5-ylidenemethyl)-phenyl]-amide] | > 6.30 | 149.3 | > 6.30
6 | Oc1cccc(/C=C2\c3ccc(Cl)cc3CCc3cccnc32)c1 [Example 245, 3-(8-Chloro-5,6-dihydro-benzo[5,6]cyclohepta[1,2-b]pyridin-11-ylidenemethyl)-phenol] | > 6.30 | > 250 | > 5.00
7 | Nc1ccc(C=C2c3ccccc3CCc3ccccc32)cc1 [Example 88, 4-(10,11-Dihydro-dibenzo[a,d]cyclohepten-5-ylidenemethyl)-phenylamine] | > 6.30 | > 250 | > 6.00
8 | O=Cc1ccc(C=C2c3ccccc3CCc3ccccc32)cc1 [Example 68, 4-(10,11-Dihydro-dibenzo[a,d]cyclohepten-5-ylidenemethyl)-benzaldehyde] | > 6.30 | 106.4 | > 6.30
9 | Nc1ccccc1C=C1c2ccccc2CCc2ccccc21 [Example 87, 2-(10,11-Dihydro-dibenzo[a,d]cyclohepten-5-ylidenemethyl)-phenylamine] | > 6.30 | 145.2 | > 6.30
10 | CS(=O)(=O)Nc1cccc(C=C2c3ccc(Cl)cc3CCc3cc(Cl)ccc32)c1 [Example 182, N-[3-(2,8-Dichloro-10,11-dihydro-dibenzo[a,d]cyclohepten-5-ylidenemethyl)-phenyl]-methanesulfonamide] | > 6.30 | 182.4 | > 6.30
11 | O=c1[nH]c2ccc(C=C3c4ccc(F)cc4CCc4cc(F)ccc43)cc2[nH]1 [Example 437, 5-(2,8-difluoro-10,11-dihydro-dibenzo[a,d]cyclohepten-5-ylidenemethyl)-1,3-dihydro-benzoimidazol-2-one] | > 6.30 | 257 | > 6.00
12 | Oc1cccc(/C=C2/c3ccc(Cl)cc3CCc3cccnc32)c1 [Example 244, 3-(8-Chloro-5,6-dihydro-benzo[5,6]cyclohepta[1,2-b]pyridin-11-ylidenemethyl)-phenol] | > 6.30 | 221.2 | > 5.00
13 | Cc1ccc(C=C2c3ccccc3CCc3ccccc32)c(S(=O)(=O)N2CCOCC2)c1 [Example 22, 4-[2-(10,11-Dihydro-dibenzo[a,d]cyclohepten-5-ylidenemethyl)-5-methyl-benzenesulfonyl]-morpholine] | – | 157.2 | –
14 | O=S(=O)(c1ccccc1C=C1c2ccccc2CCc2ccccc21)N1CCOCC1 [Example 8, 4-[2-(10,11-Dihydro-dibenzo[a,d]cyclohepten-5-ylidenemethyl)-benzenesulfonyl]-morpholine] | – | 139.3 | –
15 | CCCNS(=O)(=O)c1cc(C)ccc1C=C1c2ccccc2CCc2ccccc21 [Example 20, 2-(10,11-Dihydro-dibenzo[a,d]cyclohepten-5-ylidenemethyl)-5-methyl-N-propyl-benzenesulfonamide] | – | 149.8 | –
16 | Cc1ccc(C=C2c3ccccc3CCc3ccccc32)c(S(=O)(=O)Nc2ccccc2)c1 [Example 13] | – | 220.4 | –
17 | COc1ccc(C=C2c3ccccc3CCc3ccccc32)cc1Br [Example 34, 5-(3-Bromo-4-methoxy-benzylidene)-10,11-dihydro-5H-dibenzo[a,d]cycloheptene] | – | 140.7 | –
18 | CN(C)S(=O)(=O)c1cccc(C=C2c3ccccc3CCc3ccccc32)c1 [Example 25, 3-(10,11-Dihydro-dibenzo[a,d]cyclohepten-5-ylidenemethyl)-N,N-dimethyl-benzenesulfonamide] | – | 167.3 | –
19 | Nc1cc(C=C2c3ccccc3CCc3ccccc32)ccc1O [Example 63, 2-Amino-4-(10,11-dihydro-dibenzo[a,d]cyclohepten-5-ylidenemethyl)-phenol] | – | 158.8 | –
20 | COc1ccc(C=C2c3ccccc3CCc3ccccc32)cc1 [Example 33, 5-(4-Methoxy-benzylidene)-10,11-dihydro-5H-dibenzo-[a,d]cycloheptene] | – | 116.8 | –
21 | Cc1cc(S(=O)(=O)N(C)C)c(C=C2c3ccccc3CCc3ccccc32)cc1Cl [Example 10, 4-Chloro-2-(10,11-dihydro-dibenzo[a,d]cyclohepten-5-ylidenemethyl)-5,N,N-trimethylbenzenesulfonamide] | – | 199.9 | –
22 | CN(c1cccc(C=C2c3ccccc3CCc3ccccc32)c1)S(C)(=O)=O [Example 124, N-[3-(10,11-Dihydro-dibenzo[a,d]cyclohepten-5-ylidenemethyl)-phenyl]-N-methyl-methanesulfonamide] | – | 124.2 | –
23 | COc1ccc(C=C2c3ccccc3CCc3ccccc32)cc1NS(C)(=O)=O [Example 97, N-[5-(10,11-Dihydro-dibenzo[a,d]cyclohepten-5-ylidenemethyl)-2-methoxy-phenyl]-methanesulfonamide] | – | 192.1 | –
24 | COc1ccc(C=C2c3ccccc3CCc3ccccc32)cc1OC [Example 36, 5-(3,4-Dimethoxy-benzylidene)-10,11-dihydro-5H-dibenzo[a,d]cycloheptene] | – | 102.8 | –
25 | Cc1ccc(C=C2c3ccccc3CCc3ccccc32)c(S(=O)(=O)NC2CC2)c1 [Example 14, N-Cyclopropyl-2-(10,11-dihydro-dibenzo[a,d]cyclohepten-5-ylidenemethyl)-5-methyl-benzenesulfonamide] | – | 160.8 | –
